In one assay the test system is HL-60. In words: Cytotoxicity against human HL-60 cells assessed as reduction in cell growth incubated for 48 hrs by MTT assay. The assay is classed as functional, cell-based. Particulars: HL-60, 48 h.
The subject of another assay is SMMC-7721. In words: Cytotoxicity against human SMMC-7721 cells assessed as reduction in cell viability incubated for 48 hrs by MTT assay. In kind it is functional, cell-based. Particulars: SMMC-7721, 48 h.
The test system of assay [1] is A549. The experiment in a line: Cytotoxicity against human A549 cells assessed as reduction in cell viability incubated for 48 hrs by MTT assay. The assay is classed as functional, cell-based. Particulars: A549, 48 h.
Assay [2] has as its system MCF7. In words: Cytotoxicity against human MCF7 cells assessed as reduction in cell viability incubated for 48 hrs by MTT assay. In kind it is functional, cell-based. Particulars: MCF7, 48 h.
A further assay concerns BEAS-2B. In words: Cytotoxicity against human BEAS-2B assessed as reduction in cell viability incubated for 72 hrs by MTT assay. In kind it is functional, cell-based.
Assay [3] concerns SK-BR-3. In words: Antiproliferative activity against human SK-BR-3 cells assessed as inhibition of cell proliferation incubated for 3 days by sulforhodamine B colorimetric assay. In kind it is functional, cell-based. Particulars: SK-BR-3, 72 h.
The test system of assay [4] is HCT-116. In words: Cytotoxicity against human HCT-116 cells assessed as reduction in cell growth measured after 24 hrs by MTT assay. In kind it is functional, cell-based. Particulars: HCT-116, 24 h.
Another assay has as its system PANC-1. In words: Cytotoxicity against human PANC-1 cells assessed as reduction in cell viability measured after 24 hrs by MTT assay. In kind it is functional, cell-based. Particulars: PANC-1, 24 h.
For another assay, the system named is A-431. The experiment in a line: Cytotoxicity against human A-431 cells assessed as reduction in cell growth measured after 24 hrs by MTT assay. The assay is classed as functional, cell-based. Particulars: A-431, 24 h.
A further assay concerns SK-OV-3. The experiment in a line: Cytotoxicity against human SK-OV-3 cells assessed as reduction in cell growth measured after 24 hrs by MTT assay. In kind it is functional, cell-based. Particulars: SK-OV-3, 24 h.
Assay [5] concerns MCF7. The experiment in a line: Cytotoxicity against human MCF7 cells assessed as reduction in cell growth incubated for 24 hrs by MTT assay. In kind it is functional, cell-based. Particulars: MCF7, 24 h.
In the next assay the test system is NCI-H460. In words: Cytotoxicity against human NCI-H460 cells assessed as reduction in cell viability incubated for 24 hrs by MTT assay. Particulars: NCI-H460, 24 h. The assay is classed as functional, cell-based.
Assay [6] concerns SK-BR-3. In words: Cytotoxicity against human SK-BR-3 cells assessed as reduction in cell growth incubated for 24 hrs by MTT assay. In kind it is functional, cell-based. Particulars: SK-BR-3, 24 h.
Another assay has as its system ZR-75-1. The experiment in a line: Cytotoxicity against human ZR-75-1 cells assessed as reduction in cell viability incubated for 24 hrs by MTT assay. Particulars: ZR-75-1, 24 h. In kind it is functional, cell-based.
The subject of assay [7] is MDA-MB-231. The experiment in a line: Cytotoxicity against human MDA-MB-231 cells assessed as reduction in cell viability incubated for 24 hrs by MTT assay. The assay is classed as functional, cell-based. Particulars: MDA-MB-231, 24 h.
In assay [8] the test system is MDA-MB-231. In words: Cytotoxicity against human MDA-MB-231 cells assessed as cell growth inhibition incubated for 48 hrs by SRB assay. Particulars: MDA-MB-231, 48 h. The assay is classed as functional, cell-based.
A further assay concerns U-266. In words: Anticancer activity against human U-266 cells assessed as inhibition of cell growth. The assay is classed as functional, cell-based.
In the next assay the test system is LNCaP. The experiment in a line: Antiproliferative activity against human LNCaP assessed as reduction in cell viability incubated for 72 hrs by MTT assay. In kind it is functional, cell-based.
The next assay deals with NCI-H292. The experiment in a line: Antiproliferative activity against human NCI-H292 cells expressing wild type EGFR assessed as reduction in cell viability incubated for 48 hrs by MTT assay. The assay is classed as functional, cell-based. Particulars: NCI-H292, 48 h.
The test system of assay [9] is NCI-H441. In words: Antiproliferative activity against human NCI-H441 cells expressing wild type EGFR assessed as reduction in cell viability incubated for 48 hrs by MTT assay. The assay is classed as functional, cell-based. Particulars: NCI-H441, 48 h.
The nature of assay [10]: Antiproliferative activity against human NCI-H1781 cells expressing wild type EGFR assessed as reduction in cell viability incubated for 48 hrs by MTT assay. The assay is classed as functional, cell-based. Particulars: NCI-H1781, 48 h.
In assay [11] the test system is A549. In words: Antiproliferative activity against human A549 cells expressing wild type EGFR assessed as reduction in cell viability incubated for 48 hrs by MTT assay. In kind it is functional, cell-based. Particulars: A549, 48 h.
For assay [12], the system named is U-937. In words: Antiproliferative activity against human U-937 cells assessed as cell growth inhibition measured after 72 hrs. The assay is classed as functional, cell-based. Particulars: U-937, 72 h.
Assay [13] has as its system U-937. In words: Antiproliferative activity against human U-937 cells measured upto 72 hrs. In kind it is functional, cell-based. Particulars: U-937, 72 h.
In the next assay the test system is HCC827. The experiment in a line: Antiproliferative activity against human HCC827 cells assessed as reduction in cell viability incubated for 72 hrs by MTT assay. The assay is classed as functional, cell-based. Particulars: HCC827, 72 h.
The next assay deals with NSCLC. In words: Antiproliferative activity against human NSCLC cells assessed as cell growth inhibition incubated for 72 hrs by MTT assay. In kind it is functional, cell-based.
The subject of assay [14] is NCI-H441. In words: Antiproliferative activity against human NCI-H441 cells assessed as reduction in cell viability incubated for 48 hrs by WST-8 assay. In kind it is functional, cell-based. Particulars: NCI-H441, 48 h.
Assay [15] has as its system MDA-MB-231. In words: Antitumor activity against human MDA-MB-231 cells xenografted in athymic nude mouse assessed as the inhibition of tumor growth at 50 mg/kg, sc administered daily once for 31 days relative to control. The assay is classed as functional. On the set-up: scale not given: the % may be the effect or the level left. Particulars: time 31 day.
The test system of assay [16] is HCT-116. The experiment in a line: Antiproliferative activity against human HCT-116 cells assessed as reduction in cell viability incubated for 24 hrs by MTT assay. The assay is classed as functional, cell-based. Particulars: HCT-116, 24 h.
The subject of a further assay is K562. The experiment in a line: Antiproliferative activity against human K562 cells assessed as reduction in cell viability incubated for 48 hrs by MTT assay. The assay is classed as functional, cell-based. Particulars: K562, 48 h.
Assay [17] has as its system MCF7. The experiment in a line: Antiproliferative activity against human MCF7 cells assessed as reduction in cell viability incubated for 72 hrs by MTT assay. In kind it is functional, cell-based. Particulars: MCF7, 72 h.

With `CCCC(=O)OC[C@H]1O[C@@H](Oc2c(O)cc(C(=O)O[C@@H]3Cc4c(O)cc(O)cc4O[C@@H]3c3cc(O)c(O)c(O)c3)cc2O)[C@H](OC(=O)CCC)[C@@H](OC(=O)CCC)[C@H]1OC(=O)CCC`, the half-maximal inhibitory concentration (IC50) with HL-60 came out at 22.9 µM; in the assay with SMMC-7721, 22.9 µM; in the assay on A549 [1], 22.9 µM; in the assay with MCF7 [2] it was 22.9 µM; in the assay on BEAS-2B, 40 µM.

As to `O=C(Oc1ccc(-c2ccc(OC(=O)c3cc(O)c(O)c(O)c3)cc2)cc1)c1cc(O)c(O)c(O)c1`, the IC50 in the assay on SK-BR-3 [3], with HCT-116 [4], in the assay on PANC-1, with A-431, with SK-OV-3 and in the assay on MCF7 [5] was 10 µM each time. The IC50 was found to be 10 µM with NCI-H460; 2 µM with SK-BR-3 [6]; 2 µM in the assay with ZR-75-1; 2 µM in the assay with MDA-MB-231 [7]; 45 µM in the assay on MDA-MB-231 [8].

For the molecule `COc1cc([C@H]2Oc3cccc(OC)c3C[C@H]2OC(=O)c2cc(O)c(O)c(O)c2)cc(O)c1O`, in the assay with U-266, the IC50 worked out at 0.8 µM.

`O=C(O[C@@H]1Cc2c(O)cc(O)cc2O[C@@H]1c1ccc(O)c(O)c1)c1cc(O)c(O)c(O)c1` [EPICATECHIN GALLATE]: the IC50 in the assay on LNCaP is 36 µM.

Take `O=C(O[C@@H]1Cc2c(O)cc(O)cc2O[C@@H]1c1cc(O)c(O)c(O)c1)c1cc(O)c(OCc2cn([C@H]3O[C@H](CO)[C@@H](O)[C@H](O)[C@H]3O)nn2)c(O)c1`: the IC50 (in the assay with NCI-H292; in the assay on NCI-H441 [9]; in assay [10]; in the assay on A549 [11]) was 30 µM in each case.

For the molecule `O=C(Nc1ccccc1NC(=O)c1ccc(O)c(O)c1)c1ccc(O)c(O)c1`, the IC50 came to 25 µM in the assay on U-937 [12] and 0.72 µM with U-937 [13].

With `COC(=O)c1c(O)cc2c(c1O)C[C@@H](OC(=O)c1cc(O)c(O)c(O)c1)[C@@H](c1cc(O)c(O)c(O)c1)O2`, the IC50 in the assay on HCC827 and in the assay with NSCLC was about 20 µM in each case.

With `O=C(O[C@@H]1Cc2c(OCc3cnnn3[C@H]3O[C@H](CO)[C@@H](O)[C@H](O)[C@H]3O)cc(O)cc2O[C@@H]1c1cc(O)c(O)c(O)c1)c1cc(O)c(O)c(O)c1`, the IC50 in the assay with NCI-H441 [14] came out at 100 µM; in the assay on A549 [11] it was 30 µM.

Regarding `CC(=O)Oc1cc(OC(C)=O)c2c(c1)O[C@H](c1cc(OC(C)=O)c(OC(C)=O)c(OC(C)=O)c1)[C@H](OC(=O)c1cc(OC(C)=O)c(OC(C)=O)c(OC(C)=O)c1)C2`, the Activity in the assay with MDA-MB-231 [15] worked out at 54%.

Turning to `O=C(Oc1cc(O)c2ccccc2c1)c1cc(O)c(O)c(O)c1`, the IC50 with MDA-MB-231 [8] came out at 41 µM.

Consider `O=C(O[C@@H]1Cc2c(O)cc(O)cc2O[C@@H]1c1cc(O)c(=O)c2c(O)c(O)cc([C@H]3Oc4cc(O)cc(O)c4C[C@H]3OC(=O)c3cc(O)c(O)c(O)c3)c2c1)c1cc(O)c(O)c(O)c1` [THEAFLAVIN DIGALLATE], for which, in the assay with HCT-116 [16], the IC50 came out at 120 µM.

As for `CCCCCCCCCCCCCCCC(=O)Oc1cc([C@H]2Oc3cc(O)cc(O)c3C[C@H]2OC(=O)c2cc(O)c(O)c(O)c2)cc(O)c1O`, the IC50 in the assay on K562 was 17 µM.

With `COc1cccc(C(=O)O[C@H]2COc3cc(OC)cc(OC)c3C2)c1`, the half-maximal inhibitory concentration (IC50) in the assay on MCF7 [17] was found to be 0.77 µM.

Turning to `O=C(Oc1cc(O)cc2ccccc12)c1cc(O)c(O)c(O)c1`, the IC50 in the assay on MDA-MB-231 [8] was found to be 79 µM.

As for `O=C(Nc1cccc(NC(=O)c2cccc(O)c2O)c1)c1cccc(O)c1O`, the IC50 stood at 1.7 µM in the assay on U-937 [12] and 0.67 µM with U-937 [13].

The values above are taken from ChEMBL document CHEMBL5335789, “Tea-break with epigallocatechin gallate derivatives - Powerful polyphenols of great potential for medicine” (Eur J Med Chem, 2023).
